US12263171B2, “7-, 8-, and 10-substituted amino triazolo quinazoline derivatives as adenosine receptor antagonists, pharmaceutical compositions and their use” (Merck Sharp & Dohme LLC, priority 2018, dated 2025)

Key:
[1] = target: human A2a adenosine receptor (Homo sapiens (Human), UniProt P29274); test: A2a receptor affinity radioligand binding assay ([3H] SCH58261, membranes from HEK293 or CHO cells); conditions: unstarred values: radioligand binding
How it was run: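 Displacement of tritiated SCH58261 (working dilution 4 nM) from recombinant human A2a receptor membranes (HEK293 or CHO), 60 min at room temperature in Tris pH 7.4/MgCl2 buffer after 15–30 min compound preincubation. Scintillation counting after filtration; normalized percent effect fitted 4-parameter logistic for IC50.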

[2] = target: human A2b adenosine receptor (Homo sapiens (Human), UniProt P29275); test: A2B antagonism in cAMP cell-based assay (LANCE cAMP, HEK293 cells, 600 nM adenosine); conditions: for IC50: values marked *: cAMP cell-based assay
Chain of human A2b adenosine receptor (P29275 whole entry): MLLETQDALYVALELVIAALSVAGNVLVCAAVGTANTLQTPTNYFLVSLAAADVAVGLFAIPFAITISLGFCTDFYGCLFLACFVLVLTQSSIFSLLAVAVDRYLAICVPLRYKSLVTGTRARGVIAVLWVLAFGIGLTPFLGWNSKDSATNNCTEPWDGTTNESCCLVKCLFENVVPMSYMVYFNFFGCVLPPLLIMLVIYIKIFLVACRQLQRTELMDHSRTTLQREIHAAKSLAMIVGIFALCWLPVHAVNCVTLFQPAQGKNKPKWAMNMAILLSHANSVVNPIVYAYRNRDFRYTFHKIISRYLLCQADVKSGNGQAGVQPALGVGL
Description: Measurement of A2A and A2B Antagonism in cAMP Cell-Based Assay
All subsequent liquid additions were performed using a multichannel pipettor. […] After this time 5 μL of either 300 nM or 600 nM adenosine (Sigma Cat. No. A9251) for A2A and A2B respectively was added and incubated for 30 minutes at 37° C. and 5% CO2 in a humidified environment. At this time detection mix was prepared by combining the LANCE Eu-W8044 labeled streptavidin and. Biotin-cAMP in detection buffer according to the manufacturers protocol. […] Curve fitting of the percent effect data versus the log of compound concentration used a 4-parameter concentration response curve fitting algorithm to calculate IC50 values.

Chain of human A2a adenosine receptor (P29274 whole entry): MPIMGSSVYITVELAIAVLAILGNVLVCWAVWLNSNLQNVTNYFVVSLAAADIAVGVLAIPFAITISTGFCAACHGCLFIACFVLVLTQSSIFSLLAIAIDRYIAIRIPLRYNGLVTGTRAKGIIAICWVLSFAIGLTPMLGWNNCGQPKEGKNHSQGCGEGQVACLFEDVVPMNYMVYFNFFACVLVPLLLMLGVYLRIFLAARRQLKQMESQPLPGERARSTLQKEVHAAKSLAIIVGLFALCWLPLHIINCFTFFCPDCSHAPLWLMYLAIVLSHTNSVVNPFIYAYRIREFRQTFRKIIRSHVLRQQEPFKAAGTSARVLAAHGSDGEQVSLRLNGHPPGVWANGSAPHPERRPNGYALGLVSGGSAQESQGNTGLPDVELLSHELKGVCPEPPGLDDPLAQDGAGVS

COc1cccc2c1nc(N)n1nc([C@@H]3CCCN(c4cnn(C(C)(C)C(=O)O)c4)C3)nc21 [Example 28, (R)-2-(4-(3-(5-amino-7-methoxy-[1,2,4]triazolo[1,5-c]quinazolin-2-yl)piperidin-1-yl)-1H-pyrazol-1-yl)-2-methylpropanoic acid]
IC50 [1]: 6.3 nM
IC50 [2]: 48.3 nM

COc1cccc2c1nc(N)n1nc([C@@H]3CCCN(c4cnn([C@H]5CC[C@H](O)C5)c4)C3)nc21 [Example 29, (1S,3S)-3-(4-((R)-3-(5-amino-7-methoxy-[1,2,4]triazolo[1,5-c]quinazolin-2-yl)piperidin-1-yl)-1H-pyrazol-1-yl)cyclopentan-1-ol]
IC50 [1]: 1.3 nM
IC50 [2]: 24.7 nM

COc1cccc2c1nc(N)n1nc([C@@H]3CCCN(c4cnn(C5CC6(COC6)C5)c4)C3)nc21 [Example 31, (R)-2-(1-(1-(2-oxaspiro[3.3]heptan-6-yl)-1H-pyrazol-4-yl)piperidin-3-yl)-7-methoxy-[1,2,4]triazolo[1,5-c]quinazolin-5-amine]
IC50 [1]: 50.8 nM
IC50 [2]: 1700 nM

COc1cccc2c1nc(N)n1nc([C@@H]3CCCN(c4cnn(CC5(O)CCC5)c4C)C3)nc21 [Example 34, (R)-1-((4-(3-(5-amino-7-methoxy-[1,2,4]triazolo[1,5-c]quinazolin-2-yl)piperidin-1-yl)-5-methyl-1H-pyrazol-1-yl)methyl)cyclobutan-1-ol]
IC50 [1]: 1.6 nM
IC50 [2]: 219 nM

COc1cccc2c1nc(N)n1nc([C@@H]3CCCN(c4cnn(C5COC5)c4)C3)nc21 [Example 39, (R)-7-methoxy-2-(1-(1-(oxetan-3-yl)-1H-pyrazol-4-yl)piperidin-3-yl)-[1,2,4]triazolo[1,5-c]quinazolin-5-amine]
IC50 [1]: 2.5 nM
IC50 [2]: 29.4 nM

CCC(O)(CC)Cn1cc(N2CCC[C@@H](c3nc4c5cccc(OC)c5nc(N)n4n3)C2)cn1 [Example 40]
IC50 [1]: 3.1 nM
IC50 [2]: 19.7 nM

COc1cccc2c1nc(N)n1nc([C@@H]3CCCN(c4cnn(CC5(O)CCCC5)c4)C3)nc21 [Example 41, (R)-1-((4-(3-(5-amino-7-methoxy-[1,2,4]triazolo[1,5-c]quinazolin-2-yl)piperidin-1-yl)-1H-pyrazol-1-yl)methyl)cyclopentan-1-ol]
IC50 [1]: 0.8 nM
IC50 [2]: 22.2 nM

COc1cccc2c1nc(N)n1nc([C@@H]3CCCN(c4ccn(CC(C)(C)O)n4)C3)nc21 [Example 63, (R)-1-(3-(3-(5-amino-7-methoxy-[1,2,4]triazolo[1,5-c]quinazolin-2-yl)piperidin-1-yl)-1H-pyrazol-1-yl)-2-methylpropan-2-ol]
IC50 [1]: 2 nM
IC50 [2]: 32.7 nM

COc1cccc2c1nc(N)n1nc([C@@H]3CCCN(c4cc(C(F)(F)F)nn4C)C3)nc21 [Example 77, (R)-7-methoxy-2-(1-(1-methyl-3-(trifluoromethyl)-1H-pyrazol-5-yl)piperidin-3-yl)-[1,2,4]triazolo[1,5-c]quinazolin-5-amine]
IC50 [1]: 0.8 nM
IC50 [2]: 540 nM

COc1cccc2c1nc(N)n1nc([C@@H]3CCCN(c4cc(C(F)(F)F)n(C)n4)C3)nc21 [Example 78, (R)-7-methoxy-2-(1-(1-methyl-5-(trifluoromethyl)-1H-pyrazol-3-yl)piperidin-3-yl)-[1,2,4]triazolo[1,5-c]quinazolin-5-amine]
IC50 [1]: 3.3 nM
IC50 [2]: 2500 nM

COc1cccc2c1nc(N)n1nc([C@@H]3CCCN(c4nnn(C)c4C)C3)nc21 [Example 79, (R)-2-(1-(1,5-dimethyl-1H-1,2,3-triazol-4-yl)piperidin-3-yl)-7-methoxy-[1,2,4]triazolo[1,5-c]quinazolin-5-amine]
IC50 [1]: 1.6 nM
IC50 [2]: 146 nM

COc1cccc2c1nc(N)n1nc([C@@H]3CCCN(c4ncc[nH]4)C3)nc21 [Example 80, (R)-2-(1-(1H-imidazol-2-yl)piperidin-3-yl)-7-methoxy-[1,2,4]triazolo[1,5-c]quinazolin-5-amine]
IC50 [1]: 2.3 nM
IC50 [2]: 18.2 nM

COc1cccc2c1nc(N)n1nc([C@@H]3CCCN(c4nnc(C)o4)C3)nc21 [Example 82, (R)-7-methoxy-2-(1-(5-methyl-1,3,4-oxadiazol-2-yl)piperidin-3-yl)-[1,2,4]triazolo[1,5-c]quinazolin-5-amine]
IC50 [1]: 2.6 nM
IC50 [2]: 544 nM

COc1cccc2c1nc(N)n1nc([C@@H]3CCCN(c4ncn(C)n4)C3)nc21 [Example 83, (R)-7-methoxy-2-(1-(1-methyl-1H-1,2,4-triazol-3-yl)piperidin-3-yl)-[1,2,4]triazolo[1,5-c]quinazolin-5-amine]
IC50 [1]: 0.8 nM
IC50 [2]: 78.3 nM

COc1cccc2c1nc(N)n1nc([C@@H]3CCCN(c4cnc(C5CC5)n4C)C3)nc21 [Example 84, (R)-2-(1-(2-cyclopropyl-1-methyl-1H-imidazol-5-yl)piperidin-3-yl)-7-methoxy-[1,2,4]triazolo[1,5-c]quinazolin-5-amine]
IC50 [1]: 1.6 nM
IC50 [2]: 187 nM

COc1cccc2c1nc(N)n1nc([C@@H]3CCCN(c4csc(C5CC5)n4)C3)nc21 [Example 85, (R)-2-(1-(2-cyclopropylthiazol-4-yl)piperidin-3-yl)-7-methoxy-[1,2,4]triazolo[1,5-c]quinazolin-5-amine]
IC50 [1]: 14.9 nM
IC50 [2]: 314 nM

COc1cccc2c1nc(N)n1nc([C@@H]3CCCN(c4cncn4C)C3)nc21 [Example 86, (R)-7-methoxy-2-(1-(1-methyl-1H-imidazol-5-yl)piperidin-3-yl)-[1,2,4]triazolo[1,5-c]quinazolin-5-amine]
IC50 [1]: 2.1 nM
IC50 [2]: 146 nM

COc1cccc2c1nc(N)n1nc([C@@H]3CCCN(c4ccn(C(C)C)c(=O)c4)C3)nc21 [Example 89, (R)-4-(3-(5-amino-7-methoxy-[1,2,4]triazolo[1,5-c]quinazolin-2-yl)piperidin-1-yl)-1-isopropylpyridin-2(1H)-one]
IC50 [1]: 1.5 nM
IC50 [2]: 631 nM

COc1cccc2c1nc(N)n1nc([C@@H]3CCCN(c4cc(=O)n(C)c5ccccc45)C3)nc21 [Example 90, (R)-4-(3-(5-amino-7-methoxy-[1,2,4]triazolo[1,5-c]quinazolin-2-yl)piperidin-1-yl)-1-methylquinolin-2(1H)-one]
IC50 [1]: 1.9 nM
IC50 [2]: 5930 nM

CCn1ccc(N2CCC[C@@H](c3nc4c5cccc(OC)c5nc(N)n4n3)C2)cc1=O [Example 91, (R)-4-(3-(5-amino-7-methoxy-[1,2,4]triazolo[1,5-c]quinazolin-2-yl)piperidin-1-yl)-1-ethylpyridin-2(1H)-one]
IC50 [1]: 1.8 nM
IC50 [2]: 775 nM

COc1cccc2c1nc(N)n1nc([C@@H]3CCCN(c4ccc(=O)n(CC(F)(F)F)c4C)C3)nc21 [Example 94, (R)-5-(3-(5-amino-7-methoxy-[1,2,4]triazolo[1,5-c]quinazolin-2-yl)piperidin-1-yl)-6-methyl-1-(2,2,2-trifluoroethyl)pyridin-2(1H)-one]
IC50 [1]: 2.4 nM
IC50 [2]: 210 nM

COc1cccc2c1nc(N)n1nc([C@@H]3CCCN(c4ccc(=O)n(C5CC5)c4)C3)nc21 [Example 95, (R)-5-(3-(5-amino-7-methoxy-[1,2,4]triazolo[1,5-c]quinazolin-2-yl)piperidin-1-yl)-1-cyclopropylpyridin-2(1H)-one]
IC50 [1]: 2.3 nM
IC50 [2]: 59.1 nM

COc1cccc2c1nc(N)n1nc([C@@H]3CCCN(c4ccc(=O)n(CC(F)(F)F)c4)C3)nc21 [Example 97, (R)-5-(3-(5-amino-7-methoxy-[1,2,4]triazolo[1,5-c]quinazolin-2-yl)piperidin-1-yl)-1-(2,2,2-trifluoroethyl)pyridin-2(1H)-one]
IC50 [1]: 4.4 nM
IC50 [2]: 62.4 nM

COc1cccc2c1nc(N)n1nc([C@@H]3CCCN(c4cnccc4C(F)(F)F)C3)nc21 [Example 108, (R)-7-methoxy-2-(1-(4-(trifluoromethyl)pyridin-3-yl)piperidin-3-yl)-[1,2,4]triazolo[1,5-c]quinazolin-5-amine]
IC50 [1]: 12.1 nM
*A2B cAMP % inh. @ 10000 nM ([2]; @ 10000 nM, marked *): 18% inh. @ 10000 nM*

COc1cccc2c1nc(N)n1nc([C@@H]3CCCN(c4ncc(C(F)(F)F)cn4)C3)nc21 [Example 109, (R)-7-methoxy-2-(1-(5-(trifluoromethyl)pyrimidin-2-yl)piperidin-3-yl)-[1,2,4]triazolo[1,5-c]quinazolin-5-amine]
IC50 [1]: 52.6 nM
*A2B cAMP ^ % @ 10000 nM ([2]; @ 10000 nM, marked *, printed with ^ and without inh.): 22% @ 10000 nM*

COc1cccc2c1nc(N)n1nc([C@@H]3CCCN(c4ncc(F)cn4)C3)nc21 [Example 110, (R)-2-(1-(5-fluoropyrimidin-2-yl)piperidin-3-yl)-7-methoxy-[1,2,4]triazolo[1,5-c]quinazolin-5-amine]
IC50 [1]: 2.2 nM
IC50 [2]: 721 nM

COc1cccc2c1nc(N)n1nc([C@@H]3CCCN(c4nccc(C(F)(F)F)n4)C3)nc21 [Example 111, (R)-7-methoxy-2-(1-(4-(trifluoromethyl)pyrimidin-2-yl)piperidin-3-yl)-[1,2,4]triazolo[1,5-c]quinazolin-5-amine]
IC50 [1]: 16.4 nM
*A2B cAMP % inh. @ 10000 nM ([2]; @ 10000 nM, marked *): 10% inh. @ 10000 nM*

COc1cccc2c1nc(N)n1nc([C@@H]3CCCN(c4ccc(C(F)(F)F)nc4)C3)nc21 [Example 112, (R)-7-methoxy-2-(1-(6-(trifluoromethyl)pyridin-3-yl)piperidin-3-yl)-[1,2,4]triazolo[1,5-c]quinazolin-5-amine]
IC50 [1]: 3.5 nM
IC50 [2]: 213 nM

COc1cccc2c1nc(N)n1nc([C@@H]3CCCN(c4cncc(F)c4)C3)nc21 [Example 113, (R)-2-(1-(5-fluoropyridin-3-yl)piperidin-3-yl)-7-methoxy-[1,2,4]triazolo[1,5-c]quinazolin-5-amine]
IC50 [1]: 0.6 nM
IC50 [2]: 209 nM
